Experimental data as given in EP0498830B1, “GLUTAMIC AND ASPARTIC ACID DERIVATIVES WITH ANTIGASTRIN ACTIVITY AND A METHOD FOR THEIR PREPARATION” (ROTTA RESEARCH LABORATORIUM S.P.A., priority 1989, dated 1991).
≈ marks a conversion by molar mass, not a printed value. Like-named read-outs stand apart in the source and are kept apart here.

How the values were obtained:
[1] = tested on: gastric acid secretion induced by pentagastrin; test: Antisecretive activity in anaesthetised rats, stimulant pentagastrin; assay type: in vivo; conditions: for ED50: Rattus norvegicus, iv, pentagastrin 30 mcg/kg/h, I.V. bolus, anaesthetised rats, read-out: Antagonistic activity (ED50 mg/kg IV) towards gastric acid secretion induced by pentagastrin
Protocol: The antisecretive activity was determined in rats with the use of male animals weighing about 200g, anaesthetised with urethane. Gastric secretion was stimulated with pentagastrin. K.S. Lai's method (Gut 5, (1964), 327-341) was used, with slight modifications.
After tracheotomy, oesophageal and duodenal cannulae were inserted. A tepid solution (37°C) of 0.25 mM NaOH was perfused through the stomach by means of a peristaltic pump at a constant flow rate of 1 ml/minute. After stabilisation for 20 minutes, the dose of the stimulant, indicated in Table 3, dissolved in a physiological solution, was perfused for 120 minutes at a rate of 0.95 ml/hour. After 60 minutes of perfusion (basic stimulation), the products under test were administered intravenously (I.V.) in boli whilst the perfusion of the stimulant continued for a further 60 minutes. The acid secretion was recorded continuously as a function of time.
The activity of the product was evaluated as the reduction in the secreted acidity after administration of the product as a percentage of the basic acidity measured during the first 60 minutes of collection during which only pentagastrin was present.
The antagonistic compounds tested were administered in different doses so that an ID50 (that is the dose (in mg/Kg I.V.) which can inhibit the effect of the pentagastrin by 50% could be calculated.
The results thus obtained are given in the following table in which the activities of the compounds are expressed as ID50s under the stimulus of pentagastrin at 30 mcg/Kg/h.

fundic mucosa [2] = test: Pentagastrin-induced hyperplasia of the fundic mucosa in tumour-bearing mice; assay type: in vivo; conditions: 20 days
Protocol: (§1) Male mice weighing 20-25g were inoculated subcutaneously in the interscapular region with a suspension of 8 x 10⁴ tumour cells of a mouse colic adenocarcinoma.
(§2) 5 groups each of 10 animals were used, that is : one control group of animals, one group of animals treated with 250 mcg/ml of pentagastrin twice a day and two groups of animals treated with the compound A-5 in doses of 15 and 30 mg/Kg i.p. respectively, twice a day, plus pentagastrin in the manner described above.
(§3) After 20 days, the animals were killed and the fundic mucosa and the tumours were removed, weighed and extracted in order to determine their DNA content.

[3] = tested on: mouse colic adenocarcinoma; test: Pentagastrin-induced growth of transplanted colic tumour in mice; assay type: in vivo; conditions: 20 days
Protocol: as §1, §2, §3

[4] = target: T1, gastrin receptor sites on the parietal cell membranes of the fundic mucosa of a guinea-pig stomach (Cavia porcellus, UniProt H0VZC5); test: Inhibition of binding of tritiated pentagastrin to isolated guinea-pig gastric glands; design: from tissue; host or cells: isolated gastric glands from guinea-pig fundic mucosa (collagenase digestion)
T1 sequence (H0VZC5 1-426): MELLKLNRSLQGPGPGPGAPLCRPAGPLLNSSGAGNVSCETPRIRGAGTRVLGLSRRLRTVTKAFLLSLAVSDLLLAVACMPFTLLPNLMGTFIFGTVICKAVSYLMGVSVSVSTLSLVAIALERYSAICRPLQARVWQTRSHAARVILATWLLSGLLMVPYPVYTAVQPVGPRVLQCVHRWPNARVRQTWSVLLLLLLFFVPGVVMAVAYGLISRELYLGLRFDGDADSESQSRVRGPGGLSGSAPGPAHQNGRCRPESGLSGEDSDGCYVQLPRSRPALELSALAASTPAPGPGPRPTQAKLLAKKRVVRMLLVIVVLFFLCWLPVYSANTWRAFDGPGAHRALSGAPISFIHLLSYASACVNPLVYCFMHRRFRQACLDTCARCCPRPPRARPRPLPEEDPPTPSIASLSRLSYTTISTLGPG
Protocol: (§4) The capacity of some of the compounds which are the subject of the invention to inhibit the binding of pentagastrin-[beta-alanyl-3-3H(N)] to the gastrin receptor sites on the parietal cell membranes of the fundic mucosa of a guinea-pig stomach was evaluated by comparison with the displacement of pentagastrin induced by proglumide, which is a reference antigastrin compound, by lorglumide, which is a powerful CCK antagonist mentioned above, and by the compound D5 which is the optical antipode (the L-series enantiomer) of the compound D1.
(§5) Male guinea pigs weighing about 400-500g were used. After the guinea pig had been killed, its stomach was removed and placed in oxygenated SPB buffer at 37°C (SPB = saline phosphate buffer: 149.6 mM NaCl, 3 mM K₂HPO₄, 0.64 mM NaH₂PO₄, pH 7.3).
(§6) After washing in the buffer, the stomach was placed on a petri dish and the antral part discarded.
The mucosa of the remaining part was removed from the underlying muscular part and was then chopped and transferred to a flask containing a collagenase digestion solution, 0.1% BSA and 0.2% glucose. The solution was incubated at 37°C for 10 minutes under agitation and a stream of 0₂.
During the incubation period, the tissue was passed several times through a series of pipettes with decreasing diameters in order to facilitate its digestion. At the end of the period, the tissue was removed and centrifuged at 1000 rpm. The supernatant liquid resulting from the centrifuging was discarded and the pellet washed several times with a washing buffer containing EPTA to remove the collagenase.
The glands were then isolated from the undigested tissue by conventional techniques, suspended in Hepes buffer for binding and incubated together with a radioactive tracer and the compounds under test for 30 minutes at 25°C.
After the supernatant liquid had been removed by centrifuging, the radioactivity associated with the pellet was determined with a liquid scintillator. The specific binding was determined as the difference between the binding in the absence and in the presence of 10⁻⁶ M pentagastrin.
The results obtained are shown in Table 1 which gives the IC50, that is, the concentration (in moles/litre) of the antagonist which can displace 50% of the pentagastrin tritiate from the receptor.

[5] = target: T2, central gastrin receptors (Mus musculus, UniProt P56481); test: Inhibition of binding of tritiated pentagastrin to mouse cerebral cortex membranes; design: Mouse cortex tissue was homogenised cold in 20 volumes of tris buffer (pH 7.7); from tissue; host or cells: mouse cerebral cortex membranes; species or system mice; conditions: for IC50: displacement of pentagastrin tritiate, 40 minutes at 37°C
T2 sequence (P56481 1-453): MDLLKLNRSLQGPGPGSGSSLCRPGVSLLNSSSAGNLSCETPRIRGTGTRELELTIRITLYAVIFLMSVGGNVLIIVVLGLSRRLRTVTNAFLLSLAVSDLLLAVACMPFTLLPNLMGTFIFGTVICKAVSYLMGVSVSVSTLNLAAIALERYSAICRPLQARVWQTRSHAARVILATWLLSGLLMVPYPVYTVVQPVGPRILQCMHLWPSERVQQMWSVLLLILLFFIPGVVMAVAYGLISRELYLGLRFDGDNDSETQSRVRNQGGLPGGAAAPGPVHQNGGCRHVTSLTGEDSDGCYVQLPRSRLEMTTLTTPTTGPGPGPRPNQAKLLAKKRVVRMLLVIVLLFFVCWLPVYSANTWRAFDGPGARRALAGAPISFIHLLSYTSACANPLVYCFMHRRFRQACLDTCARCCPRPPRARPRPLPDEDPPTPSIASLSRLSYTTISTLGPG
Protocol: (§7) Cerebral cortex membranes were therefore used and pentagastrin tritiate was again used as the ligand.
(§8) Mouse cortex tissue was homogenised cold in 20 volumes of tris buffer (pH 7.7). After washing and centrifuging, the final pellet was resuspended in 20 volumes of binding buffer containing, inter alia, TRIS, BSA and bacitracin. 0.4 ml of the membrane thus obtained were then incubated with a radioactive tracer and with the compounds under test for 40 minutes at 37°C.
(§9) After the supernatant liquid had been removed by centrifuging, the radioactivity associated with the pellet was determined, again with a liquid scintillator. The specific binding is the difference between the binding in the absence and in the presence of 10⁻⁶M pentagastrin.
(§10) Again, this gives the IC50s of the compounds tested with the meaning as given above.

[6] = tested on: guinea-pig gall bladders stimulated in vitro by CCK-8; test: Anti-CCK activity on guinea-pig gall bladder contracted in vitro by CCK-8; conditions: for IC50 ACTIVITY: CCK-8 10 ng/ml, at least three tests per compound
Protocol: In order to check the hypothesis that the molecular conformation of the subject compounds is suitable to give them a specific antagonistic activity towards gastrin and not towards CCK, the anticontracturant activity of some of the compounds of the invention was tested on guinea-pig gall bladders stimulated in vitro by CCK-8.
A longitudinal strip of guinea-pig gall bladder was placed in a bath for isolated organs in the presence of Krebs at a temperature of 32°C, continuously oxygenated by an oxygen-CO₂ mixture (95-5 V/V).
The isometric contractions were detected by means of a force transducer and recorded.
The gall bladder was contracted with the use of a 10ng/ml concentration of CCK-8; the antagonistic activity of the compounds towards the contracturant effect of the CCK was determined with the use of different concentrations and the IC50 value, that is, the concentration in mcg/ml of the compound which is able to antagonise the contracturant effect of the CCK by 50%, thus determined.
The results obtained are set out in the table below which gives the compounds tested and the IC50s which were calculated by the regression method on a set of at least three tests for each compound investigated.

[7] = tested on: guinea-pig gall bladders stimulated in vitro by CCK-8; conditions: CCK-8 10ng/ml; from U.S. Patent A-4 791 215; cited from earlier work
fundic mucosa [8] = test: Pentagastrin-induced hyperplasia of the fundic mucosa in tumour-bearing mice; assay type: in vivo; conditions: pentagastrin alone, 250 mcg/ml twice a day, 20 days
From the text: (§11) Male mice weighing 20-25g were inoculated subcutaneously in the interscapular region with a suspension of 8 x 10⁴ tumour cells of a mouse colic adenocarcinoma. […] After 20 days, the animals were killed and the fundic mucosa and the tumours were removed, weighed and extracted in order to determine their DNA content.

[9] = tested on: mouse colic adenocarcinoma; test: Pentagastrin-induced growth of transplanted colic tumour in mice; assay type: in vivo; conditions: pentagastrin alone, 250 mcg/ml twice a day, 20 days
From the text: as §11

[10] = target: T1, gastrin receptor sites on the parietal cell membranes of the fundic mucosa of a guinea-pig stomach; test: Inhibition of binding of tritiated pentagastrin to isolated guinea-pig gastric glands; design: from tissue; host or cells: isolated guinea-pig gastric (fundic) glands; conditions: displacement of 50% of pentagastrin tritiate; 30 minutes at 25°C
Protocol: as §4, §5, §6
The mucosa of the remaining part was removed from the underlying muscular part and was then chopped and transferred to a flask containing a collagenase digestion solution, 0.1% BSA and 0.2% glucose. […]
After the supernatant liquid had been removed by centrifuging, the radioactivity associated with the pellet was determined with a liquid scintillator. The specific binding was determined as the difference between the binding in the absence and in the presence of 10⁻⁶ M pentagastrin. […]

[11] = target: T2, central gastrin receptors; test: Inhibition of binding of tritiated pentagastrin to mouse cerebral cortex membranes; design: Cerebral cortex membranes were therefore used and pentagastrin tritiate was again used as the ligand; from tissue; host or cells: mouse cerebral cortex membranes; species or system mice; conditions: displacement of pentagastrin tritiate; 40 minutes at 37°C
Protocol: as §7, §8, §9, §10

in vivo = conditions: mouse, iv
mice = test: Acute toxicity LD50 IV in mice; conditions: LD50 IV mice / ID50 IV rats
[12] = PEG + A-5 15 mg/Kg i.p. twice a day
[13] = PEG + A-5 30 mg/Kg i.p. twice a day
[14] = displacement of 50% of pentagastrin tritiate, 30 minutes at 25°C, read-out: IC50

CC(C)(C)CCNC(=O)C(CCC(=O)O)NC(=O)c1cccc(Cl)c1 (racemic) [A5, ( ± )-4-[(3-chlorobenzoyl)-amino]-5-(3,3-dimethylbutylamino)-5-oxopentanoic acid]
ED50 [1]: 35 mg/kg
FUNDIC DNA (fundic mucosa [2]; [12]): 0.28 ± 0.02 mg
WEIGHT OF THE FUNDIC MUCOSA (fundic mucosa [2]; [12]): 25.1 ± 4.7 mg
FUNDIC DNA (fundic mucosa [2]; [13]): 0.23 ± 0.05 mg
WEIGHT OF THE FUNDIC MUCOSA (fundic mucosa [2]; [13]): 19.9 ± 2.1 mg
TUMOROUS DNA [3, 12]: 3.26 ± 0.49 mg
WEIGHT OF THE COLIC TUMOUR [3, 12]: 579.0 ± 40 mg
TUMOROUS DNA [3, 13]: 2.87 ± 0.2 mg
WEIGHT OF THE COLIC TUMOUR [3, 13]: 559.5 ± 43 mg
IC50 [4, 14]: 0.08 µM
IC50 [5]: 0.096 µM

CCCCCN(CCCCC)C(=O)C(CCC(=O)O)NC(=O)c1ccc(Cl)c(Cl)c1 (stereo not shown) [Lorglumide, reference compound]
ED50 [1]: > 100 mg/kg
activity against pentagastrin-induced acid secretion ([1]; up to a dose of 100 mg/Kg): completely inactive
IC50 ACTIVITY [6]: 0.06 µg/mL (≈ 0.131 µM)
concentration inhibiting by 50% the contraction induced by CCK-8 [7]: 0.06 µg/mL
IC50 [4, 14]: 11 µM
times less active than the most powerful compounds of the series ([4]; ratio of IC50s, gastric glands): about 200 times
IC50 [5]: 6.1 µM
times less powerful than the most active compounds ([5]; ratio of IC50s, cortical membranes): about 100 times

CSCC[C@H](NC(=O)[C@H](Cc1c[nH]c2ccccc12)NC(=O)CCNC(=O)OC(C)(C)C)C(=O)N[C@@H](CC(=O)O)C(=O)N[C@@H](Cc1ccccc1)C(N)=O [Pentagastrin]
FUNDIC DNA (fundic mucosa [8]): 0.44 ± 0.03 mg
WEIGHT OF THE FUNDIC MUCOSA (fundic mucosa [8]): 36.0 ± 4.2 mg
TUMOROUS DNA [9]: 4.48 ± 0.29 mg
WEIGHT OF THE COLIC TUMOUR [9]: 779.7 ± 27 mg
IC50 [10]: 0.00041 µM
IC50 [11]: 0.00078 µM

CC(C)(C)CCNC(=O)[C@@H](CCC(=O)O)NC(=O)c1cccc(Cl)c1 [D1, D-4-(3-chlorobenzoylamino)-5-(3,3-dimethylbutylamino)-5-oxopentanoic acid]
ED50 [1]: 28 mg/kg
IC50 ACTIVITY [6]: 83 µg/mL (≈ 225 µM)
LD50 (in vivo): ~600 mg/kg
toxic dose (LD50) relative to the antigastrin dose (ID50) (mice): about 20 times
IC50 [4, 14]: 0.053 µM
times more active than the corresponding L-enantiomers (compound D5) ([5]; cortical membranes): about 10 times
IC50 [5]: 0.061 µM

CCC(C)(CC)CCNC(=O)C(CCC(=O)O)NC(=O)c1cccc(Cl)c1 (racemic) [A13]
ED50 [1]: 33 mg/kg
IC50 ACTIVITY [6]: 32 µg/mL (≈ 80.6 µM)
concentration relative to that of lorglumide ([6]; times greater than lorglumide): about 500 times
IC50 [4]: 0.091 µM
IC50 [5]: 0.092 µM
